# “Also recorded” adds a separate entry of the source. Where two headings read alike, the source gives them in different places.
# How the values were obtained:
# [1] = carboxyl group adjacent to the anomeric carbon; cited from earlier work
# [2] = system: Clostridium perfringens sialidase; assay type: biochemical; settings: for binding/inhibition of 5a compared with 5b (in words): 5a vs 5b; for affinity relative to substrate (in words): Ki vs substrate Km; for Ki: Table 1, competitive inhibition fit; for competitive inhibitor potency (in words): summary statement
# influenza neuraminidase = settings: literature; FANA compared with DANA; cited from earlier work
# bacterial sialidases = assay type: biochemical; settings: read-out: Ki (range)
# [3] = target: T1, Salmonella typhimurium sialidase (Salmonella typhimurium, UniProt P29768); settings: for competitive inhibitor potency (in words): summary statement
# T1 sequence (P29768 whole entry): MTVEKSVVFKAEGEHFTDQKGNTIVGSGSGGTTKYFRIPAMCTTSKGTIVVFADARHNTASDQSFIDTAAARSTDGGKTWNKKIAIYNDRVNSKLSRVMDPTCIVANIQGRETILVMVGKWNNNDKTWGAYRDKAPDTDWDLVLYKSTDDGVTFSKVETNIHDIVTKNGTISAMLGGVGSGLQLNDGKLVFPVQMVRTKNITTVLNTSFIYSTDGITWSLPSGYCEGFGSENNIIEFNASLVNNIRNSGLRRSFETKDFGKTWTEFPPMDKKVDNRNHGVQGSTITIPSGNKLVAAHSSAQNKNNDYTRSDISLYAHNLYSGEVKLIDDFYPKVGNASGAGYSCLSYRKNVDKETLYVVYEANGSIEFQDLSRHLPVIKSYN
# [4] = target: T2, Vibrio cholerae sialidase (Vibrio cholerae serotype O1, UniProt P0C6E9)
# T2 sequence (P0C6E9 25-781): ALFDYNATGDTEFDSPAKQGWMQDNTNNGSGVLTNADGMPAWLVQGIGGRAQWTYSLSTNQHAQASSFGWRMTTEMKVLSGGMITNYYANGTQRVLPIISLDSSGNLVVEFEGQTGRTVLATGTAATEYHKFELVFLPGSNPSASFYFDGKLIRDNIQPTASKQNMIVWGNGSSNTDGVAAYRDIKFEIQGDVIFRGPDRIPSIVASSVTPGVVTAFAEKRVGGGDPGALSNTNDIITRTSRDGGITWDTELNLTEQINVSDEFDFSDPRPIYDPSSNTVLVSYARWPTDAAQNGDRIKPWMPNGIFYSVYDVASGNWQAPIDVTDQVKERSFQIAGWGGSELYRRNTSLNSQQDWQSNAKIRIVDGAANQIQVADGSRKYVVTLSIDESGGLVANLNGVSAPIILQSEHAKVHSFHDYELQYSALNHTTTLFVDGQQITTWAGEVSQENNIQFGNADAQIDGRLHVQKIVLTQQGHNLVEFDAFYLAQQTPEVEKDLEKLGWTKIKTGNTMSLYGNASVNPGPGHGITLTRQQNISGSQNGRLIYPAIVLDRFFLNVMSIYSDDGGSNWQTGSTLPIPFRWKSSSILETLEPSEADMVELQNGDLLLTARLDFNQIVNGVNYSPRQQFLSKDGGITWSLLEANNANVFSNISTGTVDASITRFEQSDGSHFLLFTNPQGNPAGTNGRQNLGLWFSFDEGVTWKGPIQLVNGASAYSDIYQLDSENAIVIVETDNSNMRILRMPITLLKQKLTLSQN
# [5] = target: T1, Salmonella typhimurium sialidase; experiment: biochemical
# [6] = target: T2, Vibrio cholerae sialidase; experiment: biochemical
# [7] = system: CC(=O)NC1C(O)CC(Oc2ccc([N+](=O)[O-])cc2)(C(=O)O)OC1C(O)C(O)CO; experiment: purified protein, by the assay type; settings: pH 5.5; 30.0 °C
molecule,measurement,setting,value
CC(=O)N[C@H]1[C@H]([C@H](O)[C@H](O)CO)OC(O)(C(=O)O)C[C@@H]1O (stereo partly drawn) [N-acetyl neuraminic acid],pKa,[1],~ 2.8
"CC(=O)NC1C(O)CC(Oc2ccc([N+](=O)[O-])cc2)(C(=O)O)OC1C(O)C(O)CO [2-O-(p-nitrophenyl)-a-D-N-acetylneuraminic acid, reference compound]",Km,"[2]; pH 5.5, 30° C.",280 ± 30 µM
"O=C(O)C1=C[C@H](O)[C@@H](NC(=O)C(F)(F)F)[C@H]([C@H](O)[C@H](O)CO)O1 [FANA, 2-deoxy-2,3-dehydro-N-(trifluoroacetyl) neuraminic acid]",in vitro inhibition of influenza neuraminidase (in words),influenza neuraminidase,greater in vitro activity
CC(=O)N[C@H]1[C@H](O)CN(CC(=O)O)C[C@@H]1O [Compound 5a],binding/inhibition of 5a compared with 5b (in words),[2],inhibited to the same extent; also recorded: no preference
same,affinity relative to substrate (in words),[2],slightly lower affinity than substrate
same,Ki,"[2]; pH 5.5, 30° C.",400 ± 100 µM
same,competitive inhibitor potency (in words),[2],sub-millimolar competitive inhibitors
same,Ki,bacterial sialidases,100 to 1000 µM
same,competitive inhibitor potency (in words),[3],sub-millimolar competitive inhibitors
same,binding / inhibition (in words),[4],bind weakly
same,inhibition at concentrations up to / below 2 mM,"[4]; up to 2 mM 5a, pH 5.5, 30° C.",No inhibition; also recorded: did not show inhibition
same,Ki,[5],2500 ± 400 µM
same,Ki,[6],> 2000 µM
Salmonella typhimurium sialidase (Salmonella enterica subsp. enterica serovar Typhimurium str. LT2),Km,[7],1200 µM
"CC(=O)N[C@H]1[C@H](O)CN(C(Cc2ccccc2)C(=O)O)C[C@@H]1O (relative stereo) [±5b, trans-trans-5-N-(1'-carboxy-benzyl-ethyl)-3,5-dihydroxy-4-acetamidopiperidine]",binding/inhibition of 5a compared with 5b (in words),[2],inhibited to the same extent
same,binding/inhibition of 5a compared with 5b (in words),[2]; listed as 5b,no net energetic advantage over binding 5a exists; also recorded: no preference
same,affinity relative to substrate (in words),[2],slightly lower affinity than substrate
same,Ki,"[2]; pH 5.5, 30° C.",500 ± 70 µM
same,competitive inhibitor potency (in words),[2],sub-millimolar competitive inhibitors
same,Ki,bacterial sialidases,100 to 1000 µM
same,binding of ±5b relative to 5a,[3]; 5b vs 5a,~5 times more tightly
same,binding of ±5b relative to 5a (in words),[3]; 5b vs 5a,bound tighter than 5a
same,type of inhibition (double reciprocal plot),[3]; FIG. 4,competitive
same,binding relative to the p-nitrophenyl glycoside substrate,[3]; Ki vs substrate Km,approximately 2 × tighter
same,competitive inhibitor potency (in words),[3],sub-millimolar competitive inhibitors
same,binding / inhibition (in words),[4],modest inhibitor
same,binding of ±5b relative to 5a (in words),[4]; 5b vs 5a,bound tighter than 5a
same,binding relative to the p-nitrophenyl glycoside substrate,[4]; Ki vs substrate Km,approximately 2 × tighter
same,binding / inhibition (in words),[4]; listed as 5b,bind weakly
same,Ki,[5],560 ± 30 µM
same,Ki,[6],1500 ± 200 µM
Vibrio cholerae sialidase (Vibrio cholerae O1 biovar El Tor str. N16961),Km,[7],2700 µM
"CC(=O)N[C@H]1[C@H]([C@H](O)[C@H](O)CO)OC(C(=O)O)=C[C@@H]1O [DANA, 2-deoxy-2,3-dehydro-N-acetylneuraminic acid]",in vitro inhibition of influenza neuraminidase (in words),influenza neuraminidase,effective in vitro inhibitor of NA; also recorded: among the most potent thus far described

# Reference: patent publication US6020344A (priority 1998, dated 2000)
